Molecules are shown by their SMILES. Activity calls are given as the source filed them. No cut-off for these calls is given here.

For 1 molecule, Activity and inhibition results are on record in ChEMBL document CHEMBL4406850, “Review about the multi-target profile of resveratrol and its implication in the SGK1 inhibition” (Eur J Med Chem, 2019).

In assay [1] the test system is Huh-7. The assay is described as follows: Induction of apoptosis in human HuH7 cells transfected with ShSGK1 assessed as early apoptosis at 100 uM incubated for 48 hrs by annexin V and 7-AAD staining based assay. It is filed as functional, cell-based.
Assay [2] relates to Huh-7. The assay is described as follows: Antiproliferative activity against human HuH7 cells overexpressing EGFP assessed as reduction in cell viability at 100 uM incubated for 48 hrs by trypan blue dye based assay. It is filed as functional.
For assay [3], the system named is Huh-7. In words: Induction of apoptosis in human HuH7 cells transfected with ShSGK1 assessed as late apoptosis at 100 uM incubated for 48 hrs by annexin V and 7-AAD staining based assay. It is filed as functional, cell-based.
Assay [4] deals with Huh-7. The assay is described as follows: Antiproliferative activity against human HuH7 cells transfected with ShSGK1 assessed as reduction in cell viability at 100 uM incubated for 48 hrs by trypan blue dye based assay. It is filed as functional.
Assay [5] deals with T1, Serine/threonine-protein kinase Sgk1 (Homo sapiens) (UniProt O00141).
T1 sequence (whole entry): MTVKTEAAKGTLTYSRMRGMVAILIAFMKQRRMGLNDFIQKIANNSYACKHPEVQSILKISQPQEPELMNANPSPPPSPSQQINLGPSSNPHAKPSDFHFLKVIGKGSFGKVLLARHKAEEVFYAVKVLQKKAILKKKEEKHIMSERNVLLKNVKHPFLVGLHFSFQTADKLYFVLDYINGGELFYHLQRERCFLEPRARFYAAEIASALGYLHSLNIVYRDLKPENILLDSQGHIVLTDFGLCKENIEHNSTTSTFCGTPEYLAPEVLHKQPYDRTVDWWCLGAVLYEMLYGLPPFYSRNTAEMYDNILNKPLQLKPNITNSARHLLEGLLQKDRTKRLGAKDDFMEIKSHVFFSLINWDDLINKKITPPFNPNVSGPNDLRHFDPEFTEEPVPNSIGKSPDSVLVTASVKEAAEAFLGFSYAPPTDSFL
The assay is described as follows: Inhibition of recombinant human N-terminal His-tagged SGK1 using (GRPRTSSFAEGKK) peptide as substrate incubated for 30 mins in presence of [32P] gamma ATP by scintillation counter method.

Assay [6] concerns Huh-7. In words: Induction of apoptosis in human HuH7 cells assessed as increase in late apoptotic cells at 100 uM incubated for 48 hrs by annexin V and 7-AAD staining based assay. It is filed as functional, cell-based.
In assay [7] the test system is Huh-7. In words: Induction of apoptosis in human HuH7 cells assessed as increase in early apoptotic cells at 100 uM incubated for 48 hrs by annexin V and 7-AAD staining based assay. It is filed as functional, cell-based.
The target of assay [8] is T1, Serine/threonine-protein kinase Sgk1 (Homo sapiens). In words: Inhibition of insulin-induced SGK1 in human HUH7 cells at 100 uM using peptide as substrate incubated for 6 hrs by scintillation counter method. It is filed as cell-based.
Assay [9] relates to Huh-7. The assay is described as follows: Induction of apoptosis in human HuH7 cells overexpressing SGK1 at 100 uM incubated for 48 hrs by annexin V and 7-AAD staining based assay. It is filed as functional, cell-based.
Assay [10] concerns Huh-7. In words: Induction of apoptosis in human HuH7 cells overexpressing EGFP at 100 uM incubated for 48 hrs by annexin V and 7-AAD staining based assay. It is filed as functional, cell-based.
For assay [11], the target named is T1, Serine/threonine-protein kinase Sgk1 (Homo sapiens). In words: Inhibition of SGK1 in human HUH7 cells at 100 uM using peptide as substrate incubated for 6 hrs by scintillation counter method. It is filed as cell-based.
Assay [12] concerns Huh-7. In words: Induction of apoptosis in human HuH7 cells assessed as increase in necrotic cells at 100 uM incubated for 48 hrs by annexin V and 7-AAD staining based assay. It is filed as functional, cell-based.
The test system of assay [13] is Huh-7. In words: Antiproliferative activity against human HuH7 cells assessed as reduction in cell viability at 100 uM incubated for 48 hrs by trypan blue dye based assay. It is filed as functional.
Assay [14] has as its target T1, Serine/threonine-protein kinase Sgk1 (Homo sapiens). In words: Inhibition of SGK1 in human HuH7 cells assessed as reduction in insulin-induced MDM2 phosphorylation on Ser166 at 100 uM incubated for 6 hrs by Western blot analysis. It is filed as cell-based.
Assay [15] shares this target. The assay is described as follows: Inhibition of recombinant human N-terminal His-tagged SGK1 at 50 uM using (GRPRTSSFAEGKK) peptide as substrate incubated for 30 mins in presence of [32P] gamma ATP by scintillation counter method.
Assay [16] concerns Huh-7. The assay is described as follows: Antiproliferative activity against human HuH7 cells overexpressing SGK1 assessed as reduction in cell viability at 100 uM incubated for 48 hrs by trypan blue dye based assay. It is filed as functional.

Take `Oc1ccc(/C=C/c2cc(O)cc(O)c2)cc1`: the result in the assay with Huh-7 [1], in the assay with Huh-7 [2], in the assay with Huh-7 [3], with Huh-7 [4], with Huh-7 [6] and in the assay with Huh-7 [7] was Active. In addition, the outcome in the assay with Huh-7 [10], with Huh-7 [12] and in the assay on Huh-7 [13] was Active. Further, the inhibition entry in [5] is “Dose-dependent effect”; in assay [15] it was 50%. For the same molecule, the inhibition result in assay [8] and in assay [14] was “Active” in each case. For the same molecule, the result in the assay on Huh-7 [9] and in the assay on Huh-7 [16] was inactive. In addition, the inhibition result in [11] is “inactive”.
